Laboratory results as given in patent publication US8030354B2, “Substituted biphenyl GPR40 modulators” (Amgen Inc., priority 2007, dated 2011).

What was measured:
GPR40 [1] = target: T1, GPR40 (Homo sapiens, UniProt O14842); assay: Cell-based aequorin assay (CHO cells stably expressing GPR40 and aequorin); parameters: expressed in transfected cells; host or cells: CHO cells stably transfected with GPR40 and aequorin; details: activation of human GPR40, CHO cells, 0.01% HSA
Method in brief: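 CHO cells stably co-expressing GPR40 and aequorin, loaded with coelenterazine (1 ug/mL, 2 h, room temperature) in H/HBSS with 20 mM Hepes and 0.01% fatty acid-free HSA. Serially diluted compounds added; luminescence recorded over 20 s. EC50 from dose-response of maximum relative light units.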

GPR40 [2] = target: T1, GPR40; assay: Inositol phosphate accumulation assay (A9_GPR40 cells); assay type: cell-based; parameters: expressed in transfected cells; host or cells: CHO cells stably transfected with GPR40 and aequorin; details: inositol phosphate assay, A9_GPR40 cells, 1 hour; read-out: IP3 EC50
Method in brief: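 A9 cells stably expressing GPR40 were labelled 16 h with 1 μCi/mL ^3H-inositol in inositol-free DMEM with dialysed FBS. Compounds in HBSS/10 mM LiCl with HSA were applied for 1 h at 37° C, then quenched with 20 mM formic acid. Accumulated [^3H] inositol phosphates were counted by SPA.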

T1 sequence (O14842 whole entry): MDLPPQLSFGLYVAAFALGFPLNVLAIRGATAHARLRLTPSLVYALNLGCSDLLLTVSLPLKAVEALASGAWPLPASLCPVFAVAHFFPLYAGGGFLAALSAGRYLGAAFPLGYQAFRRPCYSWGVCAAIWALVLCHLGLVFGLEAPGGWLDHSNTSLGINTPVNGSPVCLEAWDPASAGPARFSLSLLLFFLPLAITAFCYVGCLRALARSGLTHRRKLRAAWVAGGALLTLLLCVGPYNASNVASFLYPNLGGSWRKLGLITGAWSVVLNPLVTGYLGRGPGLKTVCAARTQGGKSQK

Row | SMILES | EC50 (GPR40 [1]) [nM] | EC50 (GPR40 [2]) [nM]
1 | COc1cc(-c2ccc(COc3cccc(C(CC(=O)O)C4CC4)c3)cc2C2=CCCC2(C)C)ccn1 (single isomer, unassigned) [Example 66.66, (3S)-3-(3-(3-(5,5-Dimethylcyclopent-1-enyl)-4-(2-methoxypyridin-4-yl)benzyloxy)phenyl)-3-cyclopropylpropanoic acid or (3R)-3-(3-(3-(5,5-dimethylcyclopent-1-enyl)-4-(2-methoxypyridin-4-yl)benzyloxy)phenyl)-3-cyclopropylpropanoic acid] | 100 to 1000 | 10 to 100
2 | C=CC1(c2cc(COc3cccc([C@@H](CC(=O)O)C4CC4)c3)ccc2-c2cc(OC)ncc2F)CCCC1 (single isomer, unassigned) [Example 66.67, (3S)-3-(3-(4-(5-Fluoro-2-methoxypyridin-4-yl)-3-(1-vinylcyclopentyl)benzyloxy)phenyl)-3-cyclopropylpropanoic acid or (3R)-3-(3-(4-(5-fluoro-2-methoxypyridin-4-yl)-3-(1-vinylcyclopentyl)benzyloxy)phenyl)-3-cyclopropylpropanoic acid] | 100 to 1000 | 10 to 100
3 | COc1ccc(F)c(-c2ccc(COc3cccc([C@@H](CC(=O)O)C4CC4)c3)cc2C2=CCCC2)c1 (single isomer, unassigned) [Example 66.68, (S)-3-[3-(2-Cyclopent-1-enyl-2′-fluoro-5′-methoxy-biphenyl-4-ylmethoxy)-phenyl]-3-cyclopropyl-propionic acid or (R)-3-[3-(2-cyclopent-1-enyl-2′-fluoro-5′-methoxy-biphenyl-4-ylmethoxy)-phenyl]-3-cyclopropyl-propionic acid] | 100 to 1000 | 10 to 100
4 | COc1ccc(F)c(-c2ccc(COc3cccc([C@@H](CC(=O)O)C4CC4)c3)cc2CN2[C@H](C)CCC[C@H]2C)c1 (single isomer, unassigned) [Example 66.69] | 100 to 1000 | 10 to 100
5 | COc1ccc(F)c(-c2ccc(COc3cccc(C(CC(=O)O)C4CC4)c3)cc2CN2C(C)CCCC2C)c1 (single isomer, unassigned) [Example 66.70] | 100 to 1000 | 10 to 100
6 | COc1ccc(F)c(-c2ccc(COc3cccc([C@@H](CC(=O)O)C4CC4)c3)cc2CN2[C@H](C)CC[C@H]2C)c1 (single isomer, unassigned) [Example 66.71, (3S)-3-Cyclopropyl-3-(3-(((2-(((2R,5R)-2,5-dimethyl-1-pyrrolidinyl)methyl)-2′-fluoro-5′-(methyloxy)-1,1′-biphenyl-4-yl)methyl)oxy)phenyl)propanoic acid or (3R)-3-cyclopropyl-3-(3-(((2-(((2R,5R)-2,5-dimethyl-1-pyrrolidinyl)methyl)-2′-fluoro-5′-(methyloxy)-1,1′-biphenyl-4-yl)methyl)oxy)phenyl)propanoic acid] | 100 to 1000 | 100 to 1000
7 | COc1cc(-c2cc(F)c(COc3cccc([C@@H](CC(=O)O)C4CC4)c3)cc2[C@H]2CCCC2(C)C)c(F)cn1 (single isomer, unassigned) [Example 66.77] | 10 to 100 | < 10
8 | CCCC(CC(=O)O)c1cccc(OCc2ccc(-c3cc(OC)ccc3F)c(OC3CCCCCC3)c2)c1 (single isomer, unassigned) [Example 67.2, (3R)-3-(3-(((2-(Cycloheptyloxy)-2′-fluoro-5′-(methyloxy)-1,1′-biphenyl-4-yl)methyl)oxy)phenyl)hexanoic acid or (3S)-3-(3-(((2-(cycloheptyloxy)-2′-fluoro-5′-(methyloxy)-1,1′-biphenyl-4-yl)methyl)oxy)phenyl)hexanoic acid] | 100 to 1000 | 100 to 1000
9 | CCCC(CC(=O)O)c1cccc(OCc2ccc(-c3cc(OC)ccc3F)c(C3=CCCCCC3)c2)c1 (single isomer, unassigned) [Example 67.6, (3R)-3-(3-(((2-(1-Cyclohepten-1-yl)-2′-fluoro-5′-(methyloxy)-1,1′-biphenyl-4-yl)methyl)oxy)phenyl)hexanoic acid or (3S)-3-(3-(((2-(1-cyclohepten-1-yl)-2′-fluoro-5′-(methyloxy)-1,1′-biphenyl-4-yl)methyl)oxy)phenyl)hexanoic acid] | 100 to 1000 | 10 to 100
10 | CCCC(CC(=O)O)c1cccc(OCc2ccc(-c3cc(OC)ccc3F)c(C3CCCCCC3)c2)c1 (single isomer, unassigned) [Example 67.7, (3R)-3-(3-(((2-Cycloheptyl-2′-fluoro-5′-(methyloxy)-1,1′-biphenyl-4-yl)methyl)oxy)phenyl)hexanoic acid or (3S)-3-(3-(((2-cycloheptyl-2′-fluoro-5′-(methyloxy)-1,1′-biphenyl-4-yl)methyl)oxy)phenyl)hexanoic acid] | 100 to 1000 | 10 to 100
11 | CCCC(CC(=O)O)c1cccc(OCc2ccc(-c3cc(OC)ccc3F)c(C3CCCCC3)c2)c1 (single isomer, unassigned) [Example 67.8, (3R)-3-(3-(((2-Cyclohexyl-2′-fluoro-5′-(methyloxy)-1,1′-biphenyl-4-yl)methyl)oxy)phenyl)hexanoic acid or (3S)-3-(3-(((2-cyclohexyl-2′-fluoro-5′-(methyloxy)-1,1′-biphenyl-4-yl)methyl)oxy)phenyl)hexanoic acid] | 100 to 1000 | 10 to 100
12 | CCC[C@H](CC(=O)O)c1cccc(OCc2ccc(-c3cc(OC)ccc3F)c(C3CCCC3(C)C)c2)c1 (single isomer, unassigned) [Example 67.11, (3R)-3-(3-(((2-(2,2-Dimethylcyclopentyl)-2′-fluoro-5′-(methyloxy)-1,1′-biphenyl-4-yl)methyl)oxy)phenyl)hexanoic acid or (3S)-3-(3-(((2-(2,2-dimethylcyclopentyl)-2′-fluoro-5′-(methyloxy)-1,1′-biphenyl-4-yl)methyl)oxy)phenyl)hexanoic acid] | 100 to 1000 | 10 to 100
13 | CCCC(CC(=O)O)c1cccc(OCc2ccc(-c3cccc(OC)c3)c(C3=CCCC3(C)C)c2)c1 (single isomer, unassigned) [Example 67.12, (3R)-3-(3-(((2-(5,5-Dimethyl-1-cyclopenten-1-yl)-3′-(methyloxy)-1,1′-biphenyl-4-yl)methyl)oxy)phenyl)hexanoic acid or (3S)-3-(3-(((2-(5,5-dimethyl-1-cyclopenten-1-yl)-3′-(methyloxy)-1,1′-biphenyl-4-yl)methyl)oxy)phenyl)hexanoic acid] | 100 to 1000 | 10 to 100
14 | CCC[C@H](CC(=O)O)c1cccc(OCc2ccc(-c3cc(OC)ccc3F)c(N3CCCCC3)c2)c1 (single isomer, unassigned) [Example 67.20, (3R)-3-(3-(((2′-Fluoro-5′-(methyloxy)-2-(1-piperidinyl)-1,1′-biphenyl-4-yl)methyl)oxy)phenyl)hexanoic acid or (3S)-3-(3-(((2′-fluoro-5′-(methyloxy)-2-(1-piperidinyl)-1,1′-biphenyl-4-yl)methyl)oxy)phenyl)hexanoic acid] | 100 to 1000 | 10 to 100
15 | CCC[C@H](CC(=O)O)c1cccc(OCc2cc(C3=CCCC3(C)C)c(-c3cc(OC)ccc3F)cc2F)c1 (single isomer, unassigned) [Example 67.21] | 100 to 1000 | 10 to 100
16 | C=CC(C)(C)[C@H](OC)c1cc(COc2cccc([C@H](CCC)CC(=O)O)c2)ccc1-c1cc(OC)ccc1F (single isomer, unassigned) [Example 67.24] | 100 to 1000 | 10 to 100
17 | COc1ccc(F)c(-c2ccc(COc3cccc(C(CC(=O)O)CC4CC4)c3)cc2C2CCCCCC2)c1 (single isomer, unassigned) [Example 69.1, (3R)-3-(3-(((2-Cycloheptyl-2′-fluoro-5′-(methyloxy)-1,1′-biphenyl-4-yl)methyl)oxy)phenyl)-4-cyclopropylbutanoic acid or (3S)-3-(3-(((2-cycloheptyl-2′-fluoro-5′-(methyloxy)-1,1′-biphenyl-4-yl)methyl)oxy)phenyl)-4-cyclopropylbutanoic acid] | 100 to 1000 | < 10
18 | COc1cccc(-c2ccc(COc3cccc(C(CC(=O)O)CC4CC4)c3)cc2C2=CCCC2(C)C)c1 (single isomer, unassigned) [Example 69.2, (3R)-4-Cyclopropyl-3-(3-(((2-(5,5-dimethyl-1-cyclopenten-1-yl)-3′-(methyloxy)-1,1′-biphenyl-4-yl)methyl)oxy)phenyl)butanoic acid or (3S)-4-cyclopropyl-3-(3-(((2-(5,5-dimethyl-1-cyclopenten-1-yl)-3′-(methyloxy)-1,1′-biphenyl-4-yl)methyl)oxy)phenyl)butanoic acid] | 100 to 1000 | 10 to 100
19 | COc1cccc(-c2ccc(COc3cccc(C(CC(=O)O)CC4CC4)c3)cc2C(C)(C)C)c1 (single isomer, unassigned) [Example 69.3, (3R)-4-Cyclopropyl-3-(3-(((2-(1,1-dimethylethyl)-3′-(methyloxy)-1,1′-biphenyl-4-yl)methyl)oxy)phenyl)butanoic acid or (3S)-4-cyclopropyl-3-(3-(((2-(1,1-dimethylethyl)-3′-(methyloxy)-1,1′-biphenyl-4-yl)methyl)oxy)phenyl)butanoic acid] | 100 to 1000 | 10 to 100
